Test results as given in ChEMBL document CHEMBL1201862, “PubChem BioAssay data set” (2004).
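Cells were grown in 96-well plates and exposed to each compound for 48 hours at five concentrations; endpoints were interpolated linearly between bracketing concentrations, or set to the highest concentration if not reached. The concentration for 50% growth inhibition is given as GI50.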 Active and inactive are the calls of the source. No stated cut-off is given here; in the data, active = GI50 up to about 1.1 µM and inactive = higher.

Columns and labels:
Test in all cases: DTP human tumour cell line panel, 48 h
[1] = test system: HL-60
[2] = test system: COLO 205
[3] = test system: SK-MEL-28
[4] = test system: MOLT-4
[5] = test system: RXF 393
[6] = test system: HOP-62
[7] = test system: NCI-H23
[8] = test system: IGROV-1
[9] = test system: SW-620
[10] = test system: SF-539
[11] = test system: TK-10
[12] = test system: SN12C
[13] = test system: KM12
[14] = test system: 786-0
[15] = test system: SNB-75
[16] = test system: SK-OV-3
[17] = test system: SNB-19
[18] = test system: HT-29
[19] = test system: A498
[20] = test system: NCI-H226

Row | SMILES | GI50 [1] | GI50 [2] | GI50 [3] | GI50 [4] | GI50 [5] | GI50 [6] | GI50 [7] | GI50 [8] | GI50 [9] | GI50 [10] | GI50 [11] | GI50 [12] | GI50 [13] | GI50 [14] | GI50 [15] | GI50 [16] | GI50 [17] | GI50 [18] | GI50 [19] | GI50 [20]
1 | Cc1ccc(S(=O)(=O)NC(=O)NC(CCCCNC(=N)N)C(=O)O)cc1 (stereo unspecified) | > 100 µM (inactive) | > 100 µM (inactive) | > 100 µM (inactive) | > 100 µM (inactive) | > 100 µM (inactive) | > 100 µM (inactive) | > 100 µM (inactive) | > 100 µM (inactive) | > 100 µM (inactive) | > 100 µM (inactive) | > 100 µM (inactive) | > 100 µM (inactive) | > 100 µM (inactive) | > 100 µM (inactive) | > 100 µM (inactive) | > 100 µM (inactive) | > 100 µM (inactive) |  |  | 
2 | COc1ccc2c(OC)c3ccoc3nc2c1O |  | > 100 µM (inactive) | > 100 µM (inactive) | 42.2 µM (inactive) |  | 49.2 µM (inactive) | > 100 µM (inactive) | > 100 µM (inactive) | > 100 µM (inactive) | > 100 µM (inactive) | > 100 µM (inactive) | > 100 µM (inactive) | > 100 µM (inactive) | > 100 µM (inactive) | 86.9 µM (inactive) | > 100 µM (inactive) | > 100 µM (inactive) | > 100 µM (inactive) | > 100 µM (inactive) | 
3 | CC(=O)/C=C1\CC(=O)N(C)c2ccccc2N1 |  | 44.7 µM (inactive) | > 100 µM (inactive) | > 100 µM (inactive) | > 100 µM (inactive) | > 100 µM (inactive) | > 100 µM (inactive) | > 100 µM (inactive) | > 100 µM (inactive) | > 100 µM (inactive) | > 100 µM (inactive) | > 100 µM (inactive) | > 100 µM (inactive) | > 100 µM (inactive) | 0.0723 µM (active) | > 100 µM (inactive) | > 100 µM (inactive) | > 100 µM (inactive) |  | > 100 µM (inactive)
4 | C=C1C(=O)O[C@@H]2C[C@@]3(C)[C@H](O)CCC(=C)[C@@H]3C[C@H]12 [ASPERILIN] |  | 2.72 µM (inactive) | 7.59 µM (inactive) |  |  | 17.1 µM (inactive) | 11.4 µM (inactive) | 20.5 µM (inactive) | 3.44 µM (inactive) | 11 µM (inactive) | 12.5 µM (inactive) | 5.94 µM (inactive) | 3.49 µM (inactive) | 9.66 µM (inactive) | 3.69 µM (inactive) | 22.3 µM (inactive) | 18.7 µM (inactive) | 3.6 µM (inactive) |  | 4.29 µM (inactive)
5 | CCC1=CCN(c2ccc(C)cc2)OC1c1ccc(OC)cc1 (stereo unspecified) | 68.2 µM (inactive) | > 100 µM (inactive) | 50.2 µM (inactive) | > 100 µM (inactive) | 69.7 µM (inactive) | > 100 µM (inactive) | 39.7 µM (inactive) | > 100 µM (inactive) | > 100 µM (inactive) | > 100 µM (inactive) | > 100 µM (inactive) | > 100 µM (inactive) | > 100 µM (inactive) | > 100 µM (inactive) | > 100 µM (inactive) | > 100 µM (inactive) | > 100 µM (inactive) | 33.8 µM (inactive) |  | > 100 µM (inactive)
6 | CCCc1cc(=O)oc2c3c(c4c(c12)OC(C)(C)CC4)O[C@@H](C)[C@H](C)[C@H]3O |  | 12.6 µM (inactive) | 15.6 µM (inactive) | 3.85 µM (inactive) | 11.3 µM (inactive) | 14.9 µM (inactive) | 12.2 µM (inactive) | 16.1 µM (inactive) | 15 µM (inactive) | 17.6 µM (inactive) |  | 4.22 µM (inactive) | 12.4 µM (inactive) | 5.37 µM (inactive) | 10.3 µM (inactive) | 17.6 µM (inactive) | 14 µM (inactive) | 8.3 µM (inactive) |  | 15.2 µM (inactive)
7 | CC1(c2nc3ccccc3[nH]2)CCC(C#N)C(C)(C)O1 (stereo unspecified) | > 100 µM (inactive) | > 100 µM (inactive) | > 100 µM (inactive) | > 100 µM (inactive) | > 100 µM (inactive) | > 100 µM (inactive) | > 100 µM (inactive) | > 100 µM (inactive) | > 100 µM (inactive) | > 100 µM (inactive) | > 100 µM (inactive) | > 100 µM (inactive) | 7.74 µM (inactive) | > 100 µM (inactive) | > 100 µM (inactive) | > 100 µM (inactive) | > 100 µM (inactive) | > 100 µM (inactive) |  | > 100 µM (inactive)
8 | CC(=O)OC1/C=C(\C)C(OC(C)=O)C/C=C(/C)CCC2C(/C=C/C1=O)C2(C)C (stereo unspecified) |  | > 100 µM (inactive) | > 100 µM (inactive) | > 100 µM (inactive) | 79.4 µM (inactive) | 92.5 µM (inactive) | > 100 µM (inactive) | > 100 µM (inactive) | > 100 µM (inactive) | > 100 µM (inactive) | 64.7 µM (inactive) | > 100 µM (inactive) | > 100 µM (inactive) |  | 31.2 µM (inactive) | > 100 µM (inactive) | > 100 µM (inactive) | > 100 µM (inactive) | > 100 µM (inactive) | > 100 µM (inactive)
9 | COc1ccc(/N=C\c2cc(OC)c(OC)c(OC)c2)cc1 |  |  | > 100 µM (inactive) | > 100 µM (inactive) | > 100 µM (inactive) | > 100 µM (inactive) | > 100 µM (inactive) | > 100 µM (inactive) | 14.3 µM (inactive) | 87.1 µM (inactive) | > 100 µM (inactive) | > 100 µM (inactive) | > 100 µM (inactive) | > 100 µM (inactive) | > 100 µM (inactive) | > 100 µM (inactive) | > 100 µM (inactive) | > 100 µM (inactive) | > 100 µM (inactive) | 
10 | C#CCN1C(=O)CN2C(Cl)(Cl)C2(c2ccccc2)c2cc(Cl)ccc21 (stereo unspecified) |  | 54.5 µM (inactive) | > 100 µM (inactive) | 25.1 µM (inactive) | > 100 µM (inactive) | 50 µM (inactive) | 86.7 µM (inactive) |  | 70.3 µM (inactive) |  | 89.9 µM (inactive) | 37.2 µM (inactive) | 28.6 µM (inactive) |  | > 10 µM (inactive) |  |  | 40.9 µM (inactive) |  | 39.7 µM (inactive)
11 | N#C/N=[N+](\[O-])c1ccc(C(=O)O)cc1 | < 0.01 µM (active) |  | 18.5 µM (inactive) |  | 16.1 µM (inactive) | 16.6 µM (inactive) | 17.7 µM (inactive) | 43.5 µM (inactive) | 19.9 µM (inactive) | 16.3 µM (inactive) | 17.5 µM (inactive) |  | > 100 µM (inactive) |  | 23.1 µM (inactive) | 18.6 µM (inactive) | 16.3 µM (inactive) | 20.3 µM (inactive) |  | 19.2 µM (inactive)
12 | CCOC(=O)/C(=C/c1ccc[nH]1)P(=O)(OCC)OCC | > 100 µM (inactive) | > 100 µM (inactive) | > 100 µM (inactive) | > 100 µM (inactive) | > 100 µM (inactive) | > 100 µM (inactive) | > 100 µM (inactive) |  | > 100 µM (inactive) | > 100 µM (inactive) | > 100 µM (inactive) | > 100 µM (inactive) | > 100 µM (inactive) | > 100 µM (inactive) | 77.6 µM (inactive) | > 100 µM (inactive) | > 100 µM (inactive) | > 100 µM (inactive) |  | > 100 µM (inactive)
13 | COc1ccc2c(c1)OCCC1=C2SCC2(C)CCN=C12 (stereo unspecified) | 29 µM (inactive) | > 100 µM (inactive) | > 100 µM (inactive) | 52 µM (inactive) | > 100 µM (inactive) | > 100 µM (inactive) | 61.7 µM (inactive) | > 100 µM (inactive) | > 100 µM (inactive) | > 100 µM (inactive) | > 100 µM (inactive) | > 100 µM (inactive) | > 100 µM (inactive) | > 100 µM (inactive) | > 100 µM (inactive) | > 100 µM (inactive) | > 100 µM (inactive) | 55.2 µM (inactive) |  | 35.6 µM (inactive)
14 | COc1ccc(C(C2C(=O)N(C)C(=O)N(C)C2=O)C(F)(F)C(=O)N(C)C)cc1 (stereo unspecified) |  | > 100 µM (inactive) | > 100 µM (inactive) |  | > 100 µM (inactive) | > 100 µM (inactive) | > 100 µM (inactive) |  | > 100 µM (inactive) | > 100 µM (inactive) | > 100 µM (inactive) |  | > 100 µM (inactive) | > 100 µM (inactive) | > 100 µM (inactive) | > 100 µM (inactive) | > 100 µM (inactive) |  | > 100 µM (inactive) | > 100 µM (inactive)
15 | C[C@]12CC[C@H](OC3CCCCO3)CC1=CC[C@@H]1C2CC[C@]2(C)/C(=N/OCCC#N)CCC12 (stereo partly specified) |  |  | > 100 µM (inactive) |  | 16 µM (inactive) | > 100 µM (inactive) | 11.4 µM (inactive) | > 100 µM (inactive) | > 100 µM (inactive) | 83.4 µM (inactive) | 24 µM (inactive) | 64.7 µM (inactive) | > 100 µM (inactive) | 23.1 µM (inactive) | 20.3 µM (inactive) | 37.5 µM (inactive) | 30.7 µM (inactive) | 2.17 µM (inactive) | > 100 µM (inactive) | 
16 | Oc1cc(O)c2c(c1)O[C@H](c1ccc(O)c(O)c1)[C@@H](O)C2 [CIANIDANOL] | > 100 µM (inactive) | > 100 µM (inactive) | > 100 µM (inactive) | > 100 µM (inactive) |  | > 100 µM (inactive) | > 100 µM (inactive) | > 100 µM (inactive) | > 100 µM (inactive) | > 100 µM (inactive) | > 100 µM (inactive) | > 100 µM (inactive) | > 100 µM (inactive) | > 100 µM (inactive) | > 100 µM (inactive) |  | > 100 µM (inactive) | > 100 µM (inactive) |  | > 100 µM (inactive)
